Results as given in patent publication US9750759B2, “Antitumoral compounds” (priority 2008, dated 2017).
Where two headings read alike, the source gives them in different places.

How the values were obtained:
Assay in all cases: cells
Format in all cases: cell-based
[1] = test system: MDA-MB-231; settings: Homo sapiens; for CC50: read-out: LC50; for GI50: concentration that produces 50% growth inhibition; for IC (total growth inhibition): read-out: TGI
Source text: (§1) The aim of this assay is to evaluate the in vitro cytostatic (ability to delay or arrest tumor cell growth) or cytotoxic (ability to kill tumor cells) activity of the samples being tested.
(§2) A colorimetric type of assay, using sulforhodamine B (SRB) reaction has been adapted for a quantitative measurement of cell growth and viability (following the technique described by Skehan P et al. J. Natl. Cancer Inst. 1990, 82, 1107-1112).
(§3) This form of assay employs SBS-standard 96-well cell culture microplates (Faircloth et al. Methods in cell science, 1988, 11(4), 201-205; Mosmann et al, Journal of Immunological. Methods, 1983, 65(1-2), 55-63). All the cell lines used in this study, derived from different types of human cancer, were obtained from the American Type Culture Collection (ATCC).
(§4) Cells were maintained in Dulbecco's Modified Eagle Medium (DMEM) supplemented with 10% Fetal Bovine Serum (FBS), 2 mM L-glutamine, 100 U/mL penicillin and 100 U/mL streptomycin at 37° C., 5% CO2 and 98% humidity. For the experiments, cells were harvested from subconfluent cultures using trypsinization and resuspended in fresh medium before counting and plating.
(§5) Cells were seeded in 96 well microtiter plates at 5×10^3 cells per well in aliquots of 150 μL, and allowed to attach to the plate surface for 18 hours in drug free medium. One control (untreated) plate of each cell line was fixed (as described below) and used for time zero reference value. Afterwards, test samples were added to the cultures in ten serial dilutions, in aliquots of 50 μL, ranging from 10 to 0.00262 μg/mL. After 48 hours exposure, the antitumor effect was estimated by the SRB method: Briefly, cells were washed twice with PBS, fixed for 15 min in 1% glutaraldehyde solution, rinsed twice in PBS, and stained in 0.4% SRB solution for 30 min at room temperature. Cells were then rinsed several times with 1% acetic acid solution and air-dried. SRB was then extracted in 10 mM trizma base solution and the absorbance measured in an automated spectrophotometric plate reader at 490 nm. Cell survival was expressed as percentage of control cell growth. The final effect of the sample being tested was estimated by applying the NCI algorithm (Boyd M R and Paull K D. Drug Dev. Res. 1995, 34, 91-104).
(§6) Using the mean±SD of triplicate cultures, a dose-response curve was automatically generated using nonlinear regression analysis. Three reference parameters were calculated (NCI algorithm) by automatic interpolation: GI50=concentration that produces 50% growth inhibition; TGI=total growth inhibition (cytostatic effect) and LC50=concentration that produces 50% net cell killing (cytotoxic effect).

[2] = test system: HT29; settings: Homo sapiens; for CC50: HT-29, 48 h, read-out: LC50; for GI50 / IC (total growth inhibition): HT-29, HT29, 48 hours exposure; for GI50: concentration that produces 50% growth inhibition; for IC (total growth inhibition): total growth inhibition (cytostatic effect), read-out: TGI
Source text: as §1, §2, §3, §4, §5, §6

[3] = test system: A549; settings: Homo sapiens; for CC50: A549, 48 h, read-out: LC50; for GI50 / IC (total growth inhibition): A549, 48 hours exposure; for GI50: concentration that produces 50% growth inhibition; for IC (total growth inhibition): total growth inhibition (cytostatic effect), read-out: TGI
Source text: as §1, §2, §3, §4, §5, §6

[4] = MDA-MB-231, 48 hours exposure, total growth inhibition (cytostatic effect)

**Q.** With `C/C=C\C[C@H](O)C/C=C\NC(=O)[C@@H](NC(=O)/C=C\C#C/C(C)=C/[C@H](C)[C@@H]1CC=C(OC)C(=O)O1)C(C)(C)C` [Compound 96] as the compound, how does the CC50 ([1]; MDA-MB-231, 48 h) read?
**A.** The CC50 was > 19 µM.

**Q.** What about the GI50 ([1]; MDA-MB-231, 48 hours exposure) of the same compound?
**A.** Its GI50 is 13.1 µM.

**Q.** And the IC (total growth inhibition) [1, 4]?
**A.** The IC (total growth inhibition) was > 19 µM.

**Q.** What about the CC50 [2] of the same compound?
**A.** The CC50 was > 19 µM.

**Q.** What about the GI50 [2] of the same compound?
**A.** The GI50 was 5.89 µM.

**Q.** And the IC (total growth inhibition) [2]?
**A.** Its IC (total growth inhibition) is 8.92 µM.

**Q.** What about the CC50 [3] of the same compound?
**A.** The CC50 was > 19 µM.

**Q.** And the GI50 [3]?
**A.** Its GI50 is 7.78 µM.

**Q.** And the IC (total growth inhibition) [3]?
**A.** Its IC (total growth inhibition) is > 19 µM.

**Q.** `COC1=CC[C@@H]([C@@H](C)/C=C(C)/C=C\C#CC(=O)N[C@H](C(=O)N/C=C\C[C@@H](O)C/C=C(\C)Cl)C(C)(C)C)OC1=O` [Compound 65a] was tested. Which CC50 ([1]; MDA-MB-231, 48 h) did it give?
**A.** Its CC50 is > 17.8 µM.

**Q.** And the GI50 ([1]; MDA-MB-231, 48 hours exposure)?
**A.** Its GI50 is 3.56 µM.

**Q.** And the IC (total growth inhibition) [1, 4]?
**A.** The IC (total growth inhibition) was 9.98 µM.

**Q.** What about the CC50 [2] of the same compound?
**A.** Its CC50 is 7.31 µM.

**Q.** And the GI50 [2]?
**A.** The GI50 was 1.78 µM.

**Q.** What about the IC (total growth inhibition) [2] of the same compound?
**A.** Its IC (total growth inhibition) is 3.03 µM.

**Q.** And the CC50 [3]?
**A.** Its CC50 is 11.8 µM.

**Q.** And the GI50 [3]?
**A.** The GI50 was 3.39 µM.

**Q.** And the IC (total growth inhibition) [3]?
**A.** The IC (total growth inhibition) was 6.24 µM.

**Q.** `COC1=CC[C@@H]([C@@H](C)/C=C\C=C/C(=O)N[C@H](C(=O)N/C=C\C[C@@H](O)C/C=C(\C)Cl)C(C)(C)C)OC1=O` [Compound 68] was tested. Which CC50 ([1]; MDA-MB-231, 48 h) did it give?
**A.** The CC50 was 6.5 µM.

**Q.** And the GI50 ([1]; MDA-MB-231, 48 hours exposure)?
**A.** The GI50 was 0.784 µM.

**Q.** What about the IC (total growth inhibition) [1, 4] of the same compound?
**A.** Its IC (total growth inhibition) is 1.49 µM.

**Q.** And the CC50 [2]?
**A.** The CC50 was > 19.1 µM.

**Q.** What about the GI50 [2] of the same compound?
**A.** The GI50 was 0.459 µM.

**Q.** What about the IC (total growth inhibition) [2] of the same compound?
**A.** Its IC (total growth inhibition) is 0.707 µM.

**Q.** What about the CC50 [3] of the same compound?
**A.** The CC50 was > 19.1 µM.

**Q.** What about the GI50 [3] of the same compound?
**A.** Its GI50 is 1.47 µM.

**Q.** And the IC (total growth inhibition) [3]?
**A.** Its IC (total growth inhibition) is 4.21 µM.

**Q.** What does the source list for `COC1=CC[C@@H]([C@@H](C)/C=C(C)/C=C\C#CC(=O)N[C@H](C(=O)N/C=C\C[C@@H](O)C/C=C(\C)Cl)C(C)C)OC1=O` [Compound 65b]?
**A.** CC50 ([1]; MDA-MB-231, 48 h): > 18.3 µM; IC (total growth inhibition) ([1]; MDA-MB-231, 48 h): > 18.3 µM; GI50 ([1]; MDA-MB-231, 48 hours exposure): 0.548 µM; CC50 [2]: > 18.3 µM; GI50 [2]: 0.183 µM; IC (total growth inhibition) [2]: 0.494 µM; CC50 [3]: > 18.3 µM; GI50 [3]: 0.311 µM; IC (total growth inhibition) [3]: 1.81 µM

**Q.** Which results are given for `COC1=CC[C@@H]([C@@H](C)/C=C(C)/C=C\C#CC(=O)N[C@H](C(=O)N/C=C\C[C@H](C/C=C(\C)Cl)OC(N)=O)C(C)C)OC1=O` [Compound 66b]?
**A.** CC50 ([1]; MDA-MB-231, 48 h): 4.58 µM; GI50 ([1]; MDA-MB-231, 48 hours exposure): 0.0271 µM; IC (total growth inhibition) [1, 4]: 0.373 µM; CC50 [2]: 0.0424 µM; GI50 [2]: 0.022 µM; IC (total growth inhibition) [2]: 0.0288 µM; CC50 [3]: > 16.9 µM; GI50 [3]: 0.0254 µM; IC (total growth inhibition) [3]: 0.0813 µM
